From patent publication US20090197859A1 (Pfizer Inc., priority 2008, published 2009)

Key:
[1] = molecular target: T1, cloned human 5-HT6 receptor (Homo sapiens, UniProt P50406); experiment: 5-HT6 Receptor Binding Assay ([3H]-LSD radioligand, SPA); settings: read-out: 5HT6 % inh @ 1 uM
T1 construct: host or cells: HeLa cells, G-418 selection, membrane preparation
Protocol: 5-HT6 Receptor Binding Assay
Hela cells containing the cloned human 5-HT6 receptor were acquired from Dr. David R. Sibley's laboratory in National Institute of Health (see Sibley, D. R., J. Neurochemistry, 66, 47-56, 1996). Cells were grown in high glucose Dulbecco's modified Eagle's medium, supplemented with L-glutamine, 0.5% sodium pyruvate, 0.3% penicillin-streptomycin, 0.025% G-418 and 5% Gibco fetal bovine serum and then were harvested, when confluent, in cold phosphate buffered saline.
Harvested intact cells were washed once in cold phosphate-buffered saline. The cells were pelleted and resuspended in 100 ml of cold 50 mM Tris, 5 mM EDTA and 5 mM EGTA, pH 7.4. Homogenization was with a Vir Tishear generator, 4 cycles for 30 seconds each at setting 50. The homogenized cells were centrifuged at […] for 10 minutes and the supernatant was removed. The pellet was resuspended in 100 ml of the above buffer and rehomogenized for 2 cycles. The rehomogenized cells were then centrifuged at […] for 10 minutes and the supernatant was removed. The combined supernatant (200 ml) was centrifuged at 23,000 RPM (80,000×g) for 1 hour in a Beckman Rotor (42.1 Ti). The membrane pellet was resuspended in […] of assay buffer containing HEPES 20 mM, MgCl2 10 mM, NaCl 150 mM, EDTA 1 mM, pH 7.4 and stored frozen in aliqouts at −70° C.
The radioligand binding assay used [^3H]-lysergic acid diethylamide (LSD). The assay was carried out in Wallac 96-well sample plates by the addition of 11 μl of the test sample at the appropriate dilution (the assay employed 11 serial concentrations of samples run in duplicate), 11 μl of radioligand, and 178 μl of a washed mixture of WGA-coated SPA beads and membranes in binding buffer. The plates were shaken for about 5 minutes and then incubated at room temperature for 1 hour. The plates were then loaded into counting cassettes and counted in a Wallac MicroBeta Trilux scintillation counter.
Binding Constant Determination may be obtained by performing serial dilutions, e.g., eleven dilutions, of test compounds into assay plates using the PE/Cetus Pro/Pette pipetter. These dilutions are followed by radioligand and the bead-membrane mixture prepared as described above. After obtaining the specifically bound cpm, the data are fit to a one-site binding model using GraphPad Prism ver. 2.0. Estimated IC50 values are converted to Ki values using the Cheng-Prusoff equation (Cheng, Y. C. et al., Biochem. Pharmacol., 22, 3099-108, 1973).

T1 sequence (P50406 whole entry): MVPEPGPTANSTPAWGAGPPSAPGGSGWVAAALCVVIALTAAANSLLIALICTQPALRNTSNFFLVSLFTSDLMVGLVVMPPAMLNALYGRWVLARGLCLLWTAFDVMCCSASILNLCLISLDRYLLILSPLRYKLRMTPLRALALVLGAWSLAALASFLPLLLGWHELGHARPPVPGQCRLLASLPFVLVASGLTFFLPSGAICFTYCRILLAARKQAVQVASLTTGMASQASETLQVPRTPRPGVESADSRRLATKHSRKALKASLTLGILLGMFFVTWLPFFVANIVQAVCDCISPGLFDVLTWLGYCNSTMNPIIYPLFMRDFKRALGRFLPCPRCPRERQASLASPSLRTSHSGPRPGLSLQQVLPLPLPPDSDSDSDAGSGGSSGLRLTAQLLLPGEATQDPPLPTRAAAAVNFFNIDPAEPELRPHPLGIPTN

Row | Structure (SMILES) | inhibition at 1 µM [1] | melting point
1 | Cc1ccc(O[C@H]2CCN(C(=O)c3cccc(N4CCCNCC4)n3)C2)cc1 [Example 43, (6-[1,4]Diazepan-1-yl-pyridin-2-yl)-((S)-3-p-tolyloxy-pyrrolidin-1-yl)-methanone] | 97.7% | 90 to 92 °C
2 | Cc1cccc(O[C@H]2CCCN(C(=O)c3cccc(N4CCCNCC4)n3)C2)c1 [Example 44, (6-[1,4]Diazepan-1-yl-pyridin-2-yl)-((S)-3-m-tolyloxy-piperidin-1-yl)-methanone] | 99.7% | 184 to 185.6 °C
3 | Cc1ccccc1O[C@H]1CCCN(C(=O)c2cccc(N3CCCNCC3)n2)C1 [Example 45, (6-[1,4]Diazepan-1-yl-pyridin-2-yl)-((S)-3-o-tolyloxy-piperidin-1-yl)-methanone] | 95.4% | 118 to 119.7 °C
4 | Cc1cccc(O[C@@H]2CCCN(C(=O)c3cccc(N4CCCNCC4)n3)C2)c1 [Example 48, (6-[1,4]Diazepan-1-yl-pyridin-2-yl)-((R)-3-m-tolyloxy-piperidin-1-yl)-methanone] | 86.1% | 158 to 160 °C
5 | Cc1ccccc1O[C@@H]1CCN(C(=O)c2cccc(N3CCCNCC3)n2)C1 [Example 49, (6-[1,4]Diazepan-1-yl-pyridin-2-yl)-((R)-3-o-tolyloxy-pyrrolidin-1-yl)-methanone] | 89.9% | 102 to 104 °C
6 | O=C(c1cccc(N2CCCNCC2)n1)N1CCC[C@@H](Oc2cccc(F)c2)C1 [Example 50, (6-[1,4]Diazepan-1-yl-pyridin-2-yl)-[(R)-3-(3-fluoro-phenoxy)-piperidin-1-yl]-methanone] | 89.6% | 172 to 174 °C
7 | Cc1cccc([C@H]2CCCCN2C(=O)c2cccc(N3CCN(C)CC3)n2)c1 [Example 52, [6-(4-Methyl-piperazin-1-yl)-pyridin-2-yl]-((R)-2-m-tolyl-piperidin-1-yl)-methanone] | 96.3% | 142 to 142.5 °C
8 | Cc1ccc(O[C@@H]2CCCN(C(=O)c3cccc(N4CCCNCC4)n3)C2)cc1 [Example 54, (6-[1,4]Diazepan-1-yl-pyridin-2-yl)-((R)-3-p-tolyloxy-piperidin-1-yl)-methanone] | 86.4% | 140 °C
9 | CN1CCN(c2cccc(C(=O)N3CCCC[C@@H]3c3cccc(F)c3)n2)CC1 [Example 55, [(R)-2-(3-Fluoro-phenyl)-piperidin-1-yl]-[6-(4-methyl-piperazin-1-yl)-pyridin-2-yl]-methanone] | 94.2% | 122.7 to 123 °C
10 | CN1CCN(c2cccc(C(=O)N3CCCC[C@H]3c3ccccc3F)n2)CC1 [Example 56, [(S)-2-(2-Fluoro-phenyl)-piperidin-1-yl]-[6-(4-methyl-piperazin-1-yl)-pyridin-2-yl]-methanone] | 90.7% | 111.7 to 112.2 °C
11 | CN1CCN(c2cccc(C(=O)N3CCCC[C@@H]3c3ccccc3F)n2)CC1 [Example 57, [(R)-2-(2-Fluoro-phenyl)-piperidin-1-yl]-[6-(4-methyl-piperazin-1-yl)-pyridin-2-yl]-methanone] | 94% | 111.7 to 112 °C
12 | CN1CCN(c2cccc(C(=O)N3CCCC(c4ccccc4F)C3)n2)CC1 (centres unmarked) [Example 58, [3-(2-Fluoro-phenyl)-piperidin-1-yl]-[6-(4-methyl-piperazin-1-yl)-pyridin-2-yl]-methanone] | 88.9% | 118 to 119 °C
13 | Cc1ccc(O[C@@H]2CCN(C(=O)c3cccc(N4CCCN(C)CC4)n3)C2)cc1 [Example 59, [6-(4-Methyl-[1,4]diazepan-1-yl)-pyridin-2-yl]-((R)-3-p-tolyloxy-pyrrolidin-1-yl)-methanone] | 76.2% | 108 to 110 °C
14 | Cc1ccccc1[C@@H](C)N(C)C(=O)c1cccc(N2CCN(C)CC2)n1 [Example 61, 6-(4-Methyl-piperazin-1-yl)-pyridine-2-carboxylic acid methyl-((R)-1-o-tolyl-ethyl)-amide] | 86.7% | 142 to 143 °C
15 | Cc1ccccc1[C@H]1CCCCN1C(=O)c1cccc(N2CCN(C)CC2)n1 [Example 62, [6-(4-Methyl-piperazin-1-yl)-pyridin-2-yl]-((R)-2-o-tolyl-piperidin-1-yl)-methanone] | 70% | 188 to 188.7 °C
16 | Cc1ccccc1[C@@H]1CCCCN1C(=O)c1cccc(N2CCN(C)CC2)n1 [Example 63, [6-(4-Methyl-piperazin-1-yl)-pyridin-2-yl]-((S)-2-o-tolyl-piperidin-1-yl)-methanone] | 77.4% | 136.7 to 137.2 °C
17 | CN1CCN(c2cccc(C(=O)N(C)Cc3ccccc3F)n2)CC1 [Example 64, 6-(4-Methyl-piperazin-1-yl)-pyridine-2-carboxylic acid (2-fluoro-benzyl)-methyl-amide] | 87.6% | 80 to 81 °C
18 | CN1CCN(c2cccc(C(=O)N(C)Cc3ccccc3Cl)n2)CC1 [Example 65, 6-(4-Methyl-piperazin-1-yl)-pyridine-2-carboxylic acid (2-chloro-benzyl)-methyl-amide] | 89.6% | 73 to 74 °C
19 | Cc1ccc([C@H]2CCCCN2C(=O)c2cccc(N3CCN(C)CC3)n2)cc1 [Example 66, [6-(4-Methyl-piperazin-1-yl)-pyridin-2-yl]-((R)-2-p-tolyl-piperidin-1-yl)-methanone] | 82.1% | 143.3 to 144 °C
20 | CN1CCN(c2cccc(C(=O)N3CCCC[C@@H]3c3ccc(F)cc3)n2)CC1 [Example 67, [(R)-2-(4-Fluoro-phenyl)-piperidin-1-yl]-[6-(4-methyl-piperazin-1-yl)-pyridin-2-yl]-methanone] | 79.1% | 130.8 to 131.5 °C
21 | Cc1cccc(O[C@H]2CCN(C(=O)c3cccc(N4CCCN(C)CC4)n3)C2)c1 [Example 68, [6-(4-Methyl-[1,4]diazepan-1-yl)-pyridin-2-yl]-((S)-3-m-tolyloxy-pyrrolidin-1-yl)-methanone] | 98.2% | 78 to 80 °C
22 | CN1CCCN(c2cccc(C(=O)N3CC[C@H](Oc4ccccc4Cl)C3)n2)CC1 [Example 69, [(S)-3-(2-Chloro-phenoxy)-pyrrolidin-1-yl]-[6-(4-methyl-[1,4]diazepan-1-yl)-pyridin-2-yl]-methanone] | 97.7% | 90 to 92 °C
23 | CN1CCN(c2cccc(C(=O)N(C)Cc3cccc(F)c3)n2)CC1 [Example 70, 6-(4-Methyl-piperazin-1-yl)-pyridine-2-carboxylic acid (3-fluoro-benzyl)-methyl-amide] | 74.9% | 77 to 78 °C
24 | CN1CCN(c2cccc(C(=O)N(C)Cc3cccc(Cl)c3)n2)CC1 [Example 71, 6-(4-Methyl-piperazin-1-yl)-pyridine-2-carboxylic acid (3-chloro-benzyl)-methyl-amide] | 87.1% | 81 to 82 °C
25 | COc1ccccc1CN(C)C(=O)c1cccc(N2CCN(C)CC2)n1 [Example 72, 6-(4-Methyl-piperazin-1-yl)-pyridine-2-carboxylic acid (2-methoxy-benzyl)-methyl-amide] | 89.9% | 75 to 76 °C
26 | Cc1cccc(CN(C)C(=O)c2cccc(N3CCN(C)CC3)n2)c1 [Example 73, 6-(4-Methyl-piperazin-1-yl)-pyridine-2-carboxylic acid methyl-(3-methyl-benzyl)-amide] | 91.9% | 101 to 102 °C
27 | CN1CCN(c2cccc(C(=O)N3CCC[C@H](Oc4cccc(F)c4)C3)n2)CC1 [Example 75, [(S)-3-(3-Fluoro-phenoxy)-piperidin-1-yl]-[6-(4-methyl-piperazin-1-yl)-pyridin-2-yl]-methanone] | 97.3% | 84 to 86 °C
28 | Cc1cccc(O[C@H]2CCCN(C(=O)c3cccc(N4CCN(C)CC4)n3)C2)c1 [Example 76, [6-(4-Methyl-piperazin-1-yl)-pyridin-2-yl]-((S)-3-m-tolyloxy-piperidin-1-yl)-methanone] | 99% | 73 to 75 °C
